Drawing on article PMC6325109, “The transcription factor STAT5 catalyzes Mannich ligation reactions yielding inhibitors of leukemic cell proliferation” (Nature Communications, 2019), this text covers Ki, IC50 and Kd for ten molecules.

For assay [1], the target named is T1, MBP-STAT5b-SH2 (Homo sapiens, UniProt P51692).
T1 sequence (P51692 589-686 limits assumed): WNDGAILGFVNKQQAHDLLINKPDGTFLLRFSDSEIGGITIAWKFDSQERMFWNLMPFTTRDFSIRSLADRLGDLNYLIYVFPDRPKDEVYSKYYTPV
The experiment in a line: fluorescence polarization competition with peptide […]. Type of assay: binding. To be noted: […] MOPS pH […], room temperature; competitive. (In general: In fluorescence polarisation assays a small probe gives low polarisation when free and higher when bound to something large.)

Assay [2] concerns the target T1, MBP-STAT5b-SH2. The experiment in a line: biochemical. Further details: fluorescence polarization competition with carboxyfluorescein-labelled phosphopeptide on MBP-STAT5b-SH2. The protocol:
24 sealed with optical seal, shaken for 15 min, and centrifuged. Thermal scanning (20 to 95°C at 1°C/min) was performed using a real-time PCR setup (Light Cycler, Roche Diagnostics, Mannheim, Germany) and fluorescence intensity was measured after every 0.3 s. Curve fitting, melting temperature calculation and report generation on the raw data were performed using GraphPad Prism 5 software. Fluorescence polarization assays and screening Ca. 17000 compounds and fragments from the ChemBioNet library were tested in a fluorescence polarization (FP) assay to investigate their ability to bind to STAT5b-SH2 domain by displacing the fluorophore-labeled peptide 5-carboxyfluorescein-GY (PO3H2) LSLPPW-NH2 1. Purified compounds were tested in the same assay. The peptide purity was >95% and the assays were performed at room temperature. The final concentration of buffer components used was 10 mM HEPES (pH 7.5), 1 mM EDTA, 0.1% Igepal CA-630, 50 mM NaCl, and 5% DMSO and the final concentration of protein used was at 125 nM. The protein was first added to the black 384-well plate (Corning cat.CLS3676, Sigma Aldrich, Taufkirchen, Germany) followed by test compounds and fluorophore-labeled peptide. The plates were centrifuged, and measured using Safire2 well plate reader (Tecan, Crailsheim, Germany) after 15 min incubation at room temperature. For testing secondary site binding of primary hit fragments, the same assay was conducted in the presence of 4-formylphenyl phosphate 2 as described earlier. For specificity analysis, FP assay was conducted with 100 nM GST-tagged, full length human STAT3 protein (cat. S54-54G-50, SignalChem, Richmond, BC, Canada) and 10 nM fluorophore-labeled peptides (5-carboxyfluorescein-GY (PO3H2) LPQTV-NH2). […] Ligands with such high ligand efficiency are rather found for enzymatic binding pockets than for protein–protein interaction sites and thus fragment 3 was selected for further validation. Binding of 3 to STAT5b-SH2 was confirmed using the thermofluor assay[28],[29], a thermal shift assay (TSA), as an independent biophysical assay. Binding of fragment 3 augmented the melting point of STAT5 by ΔTm of 3 °C (Supplementary Figure 1). Potential binding modes of the phosphotyrosine 2 and the fragment hit 3 were scrutinized using a homology model of STAT5b derived from the crystal structure of STAT5a (PDB:1Y1U [10.2210/pdb1Y1U/pdb]) for molecular docking (Fig. 1b, c)[30]. The phosphotyrosine binding site in the STAT5-SH2 domain is shallow compared with the deeper binding pockets of PTP[31],[32], coordinating phenyl phosphate 2 by only two amino-acid residues, Arg618 and Ser622. As a result, the benzene ring of 2 is not buried in a cavity like in the case of PTPs but rather exposed to the solvent at the protein surface.

For assay [3], the target named is T2, MBP-STAT5b-SH2 (Homo sapiens, UniProt P51692, N642A).
T2 sequence (P51692 589-686 N642A limits assumed): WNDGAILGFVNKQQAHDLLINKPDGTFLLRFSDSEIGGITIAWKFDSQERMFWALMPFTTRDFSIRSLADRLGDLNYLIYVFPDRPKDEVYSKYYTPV
The experiment in a line: fluorescence polarization competition with peptide […]. Type of assay: binding. The conditions noted are these: […] MOPS pH […], room temperature; competitive.

The target in assay [4] is T1, MBP-STAT5b-SH2. The description is as above. Type of assay: binding. To be noted: […] MOPS pH […], room temperature; competitive. The source holds these as a separate data set.
In a further assay the target is T3, MBP-STAT5b-SH2 N642A (human, UniProt P51692 589-686, N642A).
T3 construct: STAT5b, SH2 domain with N642A; Same construct as m1 apart from the mutation; also called STAT5b-N642A; mutant STAT5b-N642A; source: generated by site-directed mutagenesis
T3 sequence (looked up): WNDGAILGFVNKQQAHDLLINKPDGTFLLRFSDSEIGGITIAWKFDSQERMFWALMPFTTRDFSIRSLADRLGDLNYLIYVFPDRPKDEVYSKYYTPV
The experiment in a line: fluorescence polarisation; MBP-STAT5b-SH2 with peptide 1 (10 nM), 50 mM MOPS buffer pH 7.4, room temperature, 20 µl. To be noted: both partners purified.

Assay [5] deals with T4, STAT5b-SH2 domain fused to maltose-binding protein (MBP) (human, UniProt P51692 589-686).
T4 construct: STAT5b, SH2 domain; also called MBP-STAT5b-SH2; MBP-STAT5b; source: recombinantly expressed
T4 sequence (looked up): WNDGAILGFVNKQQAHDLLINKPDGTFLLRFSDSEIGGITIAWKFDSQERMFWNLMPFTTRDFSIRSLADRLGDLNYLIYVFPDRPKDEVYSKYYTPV
Described as above. To be noted: both partners purified.

Where no end group is shown, it is not given here. [ ]: non-standard residue; d: D form. pY = N[C@@H](Cc1ccc(OP(=O)(O)O)cc1)C(=O)O Bounds are passed on as bounds.

As a reminder, the Ki is a dissociation constant, usually derived from enzyme kinetics or from competition with a known ligand. Read a low Ki as higher affinity. At MBP-STAT5b-SH2 [1], `O=C(O)c1nonc1NCn1nnnc1-c1ccccc1` [compound 11, 4-(5-phenyl-tetrazol-1-yl-methylamino)-furazane-3-carboxylate] registered a Ki of 1.4 µM.
`c1nnn[nH]1` [compound 25, 1H-tetrazole] gave a Ki on MBP-STAT5b-SH2 [2] of more than 2500 µM.
With `O=C(O)c1nonc1NCn1nnnc1-c1cccc(C(F)(F)F)c1` [compound 12, 5-(3-trifluoromethyl-phenyl)-12], the Ki on MBP-STAT5b-SH2 [1] turned out to be 0.9 µM. That is a sub-micromolar value.
`c1ccc(Cc2nn[nH]n2)cc1` [compound 26, benzyl-tetrazole] returned an inhibition constant (Ki) at MBP-STAT5b-SH2 [2] of more than 2500 µM.
Regarding `O=C(O)c1nonc1NCn1cccn1` [compound 8, pyrazol-1-yl 8], the affinity on MBP-STAT5b-SH2 [1], expressed as Ki, was 122 ± 25 µM.
On MBP-STAT5b-SH2 [2], `O=C(Cn1cnnn1)Nc1nonc1C(=O)O` [compound 5, 4-(2-(1H-tetrazol-1-yl)-acetamido)-1,2,5-oxadiazole-3-carboxylic acid] came in with a Ki of more than 2500 µM.
One may read the IC50 as the point on the concentration scale where inhibition reaches its midpoint. The low end stands for greater potency, the high end for weaker potency. As for `O=C(O)c1nonc1NCn1cnnn1` [compound 10, 4-(Tetrazolyl-1-methylamino)-furazan-3-carboxylic acid], the IC50 at MBP-STAT5b-SH2 [3] is 30 µM; on MBP-STAT5b-SH2 [4], 1.5 µM.
Consider `O=C(O)c1nonc1NCn1nnnc1-c1cccc(F)c1` [compound 13, 5-(3-fluorophenyl) 13], for which, at MBP-STAT5b-SH2 [1], the Ki turned out to be 0.6 µM.
As to `O=Cc1ccc(OP(=O)(O)O)cc1` [compound 2, 4-formylphenyl phosphate], the Ki on MBP-STAT5b-SH2 [2] was more than 2500 µM.

B1: carboxyfluoresceine-labeled phosphotyrosine octapeptide 1 (peptide)
chain: G[pY]LSLPPW
modifications: not fully specified (N-terminus); also: carboxyfluorescein label, place not given here
The term Kd denotes the equilibrium constant for the complex coming apart. Read a high Kd as weaker binding. With B1, the Kd with MBP-STAT5b-SH2 N642A is approximately 5 µM; in assay [5], 0.055 µM.
